The record followed here is patent publication US5270311A, “[1,2,4]-Triazolo[1,5-a]and pyrazolo[2,3-a][1,3,5]triazine derivatives” (Imperial Chemical Industries PLC, priority 1990, dated 1993).

Where two headings read alike, the source gives them in different places.

Data set [1] has as its system fall in diastolic blood pressure produced by 2-chloroadenosine. The data set is described as follows: Anaesthetised cat blood pressure Test. The data set is classed as in vivo. The settings on record: i.v., Schild plot, 2-chloroadenosine 30 mm Hg fall in diastolic blood pressure. The method, then:
(d) Anaesthetised cat blood pressure Test This test assesses the ability of a test compound to antagonise the fall in diastolic blood pressure produced by administration of the adenosine mimetic, 2-chloroadenosine. […] The blood gas status and pH are determined, and are maintained within physiological limits, before administration of 2-chloroadenosine. […] A solution of the test compound in a mixture of 50% v/v polyethylene glycol (PEG) 400 and 0.1M sodium hydroxide is then administered i.v. and after 15 minutes the DRC to 2-chloroadenosine is determined. This procedure is repeated twice with blood gases and pH being monitored and maintained within physiological limits between each DRC. […] From this plot a KB value is determined.

The target in data set [2] is T1, adenosine receptor known as A1 (Cavia porcellus, UniProt P47745).
T1 construct: Atrial pairs are obtained from guinea-pigs (Dunkin Hartley strain, 250-400 g males); from tissue; host or cells: spontaneously beating atrial pairs, Dunkin Hartley guinea pig
T1 sequence (P47745 1-326): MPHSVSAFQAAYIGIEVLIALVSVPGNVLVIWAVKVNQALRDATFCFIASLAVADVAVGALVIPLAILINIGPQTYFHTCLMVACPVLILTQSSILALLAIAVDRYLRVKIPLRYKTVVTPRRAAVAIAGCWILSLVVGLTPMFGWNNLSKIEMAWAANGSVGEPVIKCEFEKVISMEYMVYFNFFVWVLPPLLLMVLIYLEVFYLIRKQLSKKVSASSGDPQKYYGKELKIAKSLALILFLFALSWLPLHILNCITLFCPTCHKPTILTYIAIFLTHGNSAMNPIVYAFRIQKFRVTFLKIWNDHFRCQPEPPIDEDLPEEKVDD
Description: Guinea-pig Atrial Bradycardic Test. The settings on record: antagonism of bradycardic effect of 2-chloroadenosine, beating guinea-pig atrial pair; read-out: pA2 (converted). The method, then: (c) Guinea-pig Atrial Bradycardic Test
The atrial pair preparation may be obtained as follows: Atrial pairs are obtained from guinea-pigs (Dunkin Hartley strain, 250-400 g males) and mounted in organ baths containing oxygenated Krebs buffer solution (95% O2; 5% CO2) at 37° C. The spontaneously beating atria are then placed under a resting tension of 1 g and allowed to equilibrate for 50 minutes with continuous overflow. Overflow is then stopped and adenosine deaminase (1 Unit/ml) added to prevent the accumulation of endogenously produced adenosine. After equilibration for 15 minutes, a cumulative dose response curve to the adenosine mimetic, 2-chloroadenosine(10^-8 M to 10^-4 M) is administered to produce a maximal slowing of atrial rate. After washout during 30 minutes, adenosine deaminase is readministered to the bath which is allowed to equilibrate for 15 minutes. A 10^-5 M solution of the test compound in DMSO is then added to the bath which is left to incubate for 30 minutes. Any effect on the beating rate due to the test compound is noted before the dose response curve to 2-chloroadenosine is repeated. Compounds which are adenosine antagonists attenuate the 2-chloroadenosine response.
Test compounds are assessed by comparing dose response curves to 2-chloroadenosine alone with those obtained in the presence of the compound. […]

Data set [3] has as its system actions of adenosine in lowering heart rate and increasing vasodilation (hind-limb perfusion pressure). The data set is described as follows: Anaesthetised dog Test. Conditions: Schild plot, antagonism of vasodilator response to adenosine. Type of data set: in vivo. The method, then:
(e) Anaesthetised dog Test
This test involves the assessment of the effects of a test compound on antagonising the actions of adenosine in lowering heart rate and increasing vasodilation (as measured by a fall in hind-limb perfusion pressure).
Beagles (12-18 kg) are anaesthetised with sodium pentobarbitone (50 mg/kg, iv). […] Both vagi, the right femoral and sciatic nerves are ligated and severed. […] The right leg is tied just below the ankle. Xamoterol (1 mg/kg) is then administered to the animal to stabilise heart rate at a high level and nitrobenzylthioinosine (NBTI, 0.5 mg/kg) to inhibit the uptake of adenosine. The animal is sensitised to adenosine during the equilibration time following NBTI by carrying out a dose response curve (DRC). During this time any blood gas or pH imbalance is corrected. A control DRC is performed followed-d by up to three DRC's after cumulative administration of the test compound (as described in (d) above). […] Similarly, blood gases and pH are maintained within physiological limits throughout the evaluation.
From this plot a KB value is determined for antagonism of heart rate response and vasodilator response to adenosine.

Data set [4] concerns the target T2, adenosine receptor known as A2.
T2 construct: guinea pig thoracic aorta (from Dunkin Hartley strain, 250-400 g males); from tissue; host or cells: thoracic aortic rings, Dunkin Hartley guinea pig
The data set is described as follows: Guinea-pig Aortic Constriction Test. The settings on record: antagonism of adenosine relaxation of phenylephrine constricted guinea-pig aortic ring; read-out: pA2 (converted).
Description: (b) Guinea-pig Aortic Constriction Test
The aortic ring preparation is obtained as follows: Sections (3-5 mm) of guinea pig thoracic aorta (from Dunkin Hartley strain, 250-400 g males) are mounted in organ baths containing oxygenated Krebs solution (95% O2 : 5% CO2) at 37° C. [The nucleoside transport inhibitor, dipyridamole (10 μM) is present in the Krebs solution]. The isometric tension development is recorded and the tissue placed under a resting tension of 1 g and allowed to equilibrate for 1 hour. The aortic ring preparation is then sensitised to 10^-5 M phenylephrine. Erythro-9-(2-hydroxy-3-nonyl)adenine (EHNA) (10 μM) is added to the preparation and after 10 minutes the tissue is constricted to approximately 50% maximum by adding 3×10^-6 M phenylephrine. Adenosine is next added cumulatively (10^-7 M to 10^-3 M) and the evoked relaxation is measured. After washout for 20 minutes, a 10^5 M solution of the test compound in DMSO (maximum 1% by volume) diluted with Krebs solution is added and left to equilibrate for 30 minutes. Twenty minutes into the equilibration period further EHNA (10 μM) is added to the preparation and 10 minutes later phenylephrine (3×10^-6 M) is introduced to produce constrictive tone again. A repeat dose response curve to adenosine is then carried out followed by washout.
Significant antagonist activity in this assay is indicated by a DR of >2.

Data set [5] deals with T3, A2 Adenosine receptor (Rattus norvegicus, UniProt P30543).
T3 construct: membrane preparations derived from the rat phaeochromocytoma cell line PC 12; endogenous in cells; host or cells: PC 12 (rat phaeochromocytoma; cell line available from the Beatson Institute, Glasgow)
The data set is described as follows: A2 Adenosine receptor affinity test ([3H]-NECA displacement, PC12 membranes). Type of data set: binding. The method, then:
The separated cells are then suspended in hypotonic solution (distilled water), allowed to stand on ice for 30 minutes and are then carefully homogenized using a standard high-speed homogeniser with periodic ice-cooling to obtain a fine suspension. […] A1280). […] After 20 minutes, the reaction is terminated by dilution with ice-cold buffer and transfer onto ice. The material obtained containing the cell membranes is recovered by centrifugation and washed by resuspension in buffer and recentrifugation. The pellet produced is then resuspended in ice-cold buffer using a hand-driven homogenizer. The resultant membrane suspension is frozen and stored under liquid nitrogen until required. […] After incubation, the samples are rapidly filtered over glass-fibre mats and the filter mats are washed to remove non-receptor-bound radioligand. Receptor-bound radioligand entrapped on the filter mats is then determined by liquid scintillation counting. Filtration and washing are carried out using a conventional vacuum filtration cell harvester. The specific binding (defined as the difference between the total binding and the non-specific binding) in the presence of the particular test compound is determined and compared with the control value.

The subject of data set [6] is vasodilatation response during twitch contraction of skeletal muscle. The data set is described as follows: Anaesthetised cat exercise hyperaemia test. The settings on record: Felis catus, iv, 20 min, hind limb contraction at 3 Hz for 20 minutes, read-out: dose producing significant inhibition of vasodilatation during exercise. The data set is classed as in vivo. The procedure:
(f) Anaesthetised cat exercise hyperaemia test
This test involves assessment of the effect of a test compound to antagonise the vasodilatation response which occurs during twitch contraction of skeletal muscle. The vasodilation is mediated partly by the release of endogenous adenosine from the contracting skeletal muscle.
Cats (2.4-3.6 kg) are anaesthetised with sodium pentobarbitone (50 mg.kg^-1 ip). The following blood vessels are catheterized: left jugular vein (for infusion of anaesthetic, at approximately […] as a 6 mg.ml^-1 solution in isotonic saline), right external jugular vein (for administration of drugs and test compounds), right common carotid artery (for measurement of systemic arterial blood pressure and pulse rate) and right brachial artery (for withdrawal of blood).
Blood flow to the left hind limb is measured with an electromagnetic flow probe around the left external iliac artery. The whole of the left hind limb is made to contract at 3 Hz for 20 minutes duration by stimulating the sciatic and femoral nerves. Active tension produced by the extensor digitorum longus and peroneous longus muscles is measured isometrically with a force transducer. […] Test compounds are assessed for their ability to reduce the vasodilatation during skeletal muscle contraction. […]

Data set [7] concerns adenosine induced decrease in blood pressure. Description: Conscious cat oral modification of Test (d). Type of data set: in vivo. Conditions: conscious cats, at several times the minimum effective dose. The source says:
The above Test (d) may conveniently be modified to allow evaluation of orally administered test compounds by administering the test compound to conscious cats with indwelling arterial and venous catheters and measuring the effect in preventing an adenosine induced decrease in blood pressure.

T2 sequence (P29275 whole entry): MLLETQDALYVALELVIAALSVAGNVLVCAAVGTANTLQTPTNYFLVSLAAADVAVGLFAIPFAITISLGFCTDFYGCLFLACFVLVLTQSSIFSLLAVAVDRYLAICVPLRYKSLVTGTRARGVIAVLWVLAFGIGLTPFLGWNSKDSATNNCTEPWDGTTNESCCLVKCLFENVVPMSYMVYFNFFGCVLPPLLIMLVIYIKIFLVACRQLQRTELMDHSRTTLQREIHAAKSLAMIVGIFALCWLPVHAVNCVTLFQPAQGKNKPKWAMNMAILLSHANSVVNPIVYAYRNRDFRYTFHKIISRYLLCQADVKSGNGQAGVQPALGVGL
T3 sequence (P30543 whole entry): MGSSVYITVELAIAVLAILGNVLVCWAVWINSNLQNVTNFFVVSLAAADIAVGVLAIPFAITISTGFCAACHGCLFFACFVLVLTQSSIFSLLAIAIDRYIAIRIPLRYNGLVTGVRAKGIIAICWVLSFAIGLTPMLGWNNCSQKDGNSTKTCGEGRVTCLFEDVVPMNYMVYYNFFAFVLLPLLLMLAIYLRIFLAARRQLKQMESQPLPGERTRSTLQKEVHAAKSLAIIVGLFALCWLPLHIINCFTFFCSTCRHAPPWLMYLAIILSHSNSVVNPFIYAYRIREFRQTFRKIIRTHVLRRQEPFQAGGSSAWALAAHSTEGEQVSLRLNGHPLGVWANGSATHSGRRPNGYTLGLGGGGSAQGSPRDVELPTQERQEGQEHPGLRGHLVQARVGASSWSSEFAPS

For the molecule `Nc1nc(Oc2ccccc2)nc2cc(-c3ccco3)nn12` [Example 119, 7-amino-2-(2-furyl)-5-phenoxy-pyrazolo[2,3-a][1,3,5]triazine], the KB was 0.7 mg/kg in data set [1] and 1.1 mg/kg in data set [3]. The Kb was 1000 nM in data set [2] and 50.1 nM in data set [4]. The molecule also gave a 50% inhibitory concentration (IC50) in data set [5] (displacement of [3H]-NECA, rat PC 12 cell membranes, 30° C., 90 minutes) of around 3.16 nM.
In the case of `Nc1nc(Oc2ccccc2)nc2nc(-c3ccco3)nn12` [Example 1, 7-amino-2-(2-furyl)-5-phenoxy-[1,2,4]triazolo[1,5-a][1,3,5]triazine], the KB in data set [1] and in data set [3] was 0.03 mg/kg in each case. In addition, the Kb in data set [2] is 631 nM; in data set [4] it was 39.8 nM. Also, in data set [6], the minimal effective dose was 0.1 to 1 mg/kg. Further, the “sign of overt toxicity” value in data set [7] is on record as “without any sign of overt toxicity”. For the same molecule, the IC50 in data set [5] is around 10 nM.
As for `Cn1c(=O)c2[nH]cnc2n(C)c1=O` [1,3-dimethylxanthine, reference compound], in data set [6], the minimal effective dose came out at 10 mg/kg.
